This note sets out measurements from patent US20220105188A1, “TARGET PROTEIN EED DEGRADATION-INDUCING DEGRADUCER, PREPARATION METHOD THEREOF, AND PHARMACEUTICAL COMPOSITION FOR PREVENTING OR TREATING DISEASES RELATED TO EED, EZH2, OR PRC2, COMPRISING SAME AS ACTIVE INGREDIENT” (KOREA RESEARCH INSTITUTE OF CHEMICAL TECHNOLOGY, priority 2019, published 2022).

Molecules are shown by their SMILES.

T1 sequence (O75530 whole entry): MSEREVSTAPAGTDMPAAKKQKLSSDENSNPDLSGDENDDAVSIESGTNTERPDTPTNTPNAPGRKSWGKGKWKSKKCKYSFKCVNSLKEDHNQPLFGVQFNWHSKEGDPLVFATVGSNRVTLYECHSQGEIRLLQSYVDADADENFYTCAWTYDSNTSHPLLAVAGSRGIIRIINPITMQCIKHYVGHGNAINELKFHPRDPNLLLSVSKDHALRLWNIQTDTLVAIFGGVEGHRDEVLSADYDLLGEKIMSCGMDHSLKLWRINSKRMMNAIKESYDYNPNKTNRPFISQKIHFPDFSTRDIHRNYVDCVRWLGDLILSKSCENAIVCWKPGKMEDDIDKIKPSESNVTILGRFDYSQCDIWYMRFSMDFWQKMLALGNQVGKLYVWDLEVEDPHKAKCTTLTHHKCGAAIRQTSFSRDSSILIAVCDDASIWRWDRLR

This assay has as its target T1, EED (Homo sapiens, UniProt O75530).
T1 construct: 2×10^5 Hela cells were injected into a 12-well plate; endogenous in cells; host or cells: HeLa
The experiment in a line: EED Proteolytic Activity Evaluation 2 (western blot, Hela cells). It counts as cell-based. The note with it: 1 nM, 10 nM, 100 nM and 1000 nM, 20 hours of treatment. As for the experimental part:
[Experiment 2] EED Proteolytic Activity Evaluation 2
In order to evaluate the EED proteolytic activity of the compound according to the present invention, an experiment was conducted as follows.
Specifically, 2×10^5 Hela cells were injected into a 12-well plate, and after 8 hours of stabilization, each well was treated with the example compounds to have final concentrations of 1 nM, 10 nM, 100 nM, and 1000 nM. One well was treated with the volume of DMSO contained in the sample corresponding to the highest concentration in the experimental group. After 20 hours of treatment, the cells were collected and lysed using 80 μl of SDS Lysis buffer (50 mM Tris pH8.0, 1% SDS, 1 mM EDTA, 0.5 mM PMSF, and protease inhibitor cocktail) and then sonication (30 sec on/59 sec off), 5 cycles) to prepare a cell lysate, followed by protein quantification through BCA, followed by Western blot, and the results are shown in Table 3. (Maximum EED degradation rate: A: >50%, B: 25-50%, C: <25%)
A general note: Immunoblotting shows a protein as a band on a membrane.
Turning to `Cc1cccc(F)c1CN1C[C@H](c2ccc(N3CCN(CC4CCN(CC5CCN(c6ccc7c(c6)C(=O)N(C6CCC(=O)NC6=O)C7=O)CC5)CC4)CC3)cc2)[C@@H](N(C)C)C1` (stereo partly drawn) [Example 134, 5-(4-((4-((4-(4-((3S,4R)-4-(dimethylamino)-1-(2-fluoro-6-methylbenzyl)pyrrolidin-3-yl)phenyl)piperazin-1-yl)methyl)piperidin-1-yl)methyl)piperidin-1-yl)-2-(2,6-dioxopiperidin-3-yl)isoindolin-1,3-dione], the “EED degradation rate (Maximum EED degradation rate)” value (“EED degradation rate” for short) is given as “B (B: 25-50%)”.
In the case of `Cc1cccc(F)c1CN1C[C@H](c2ccc(N3CCN(C(=O)CCC4CCN(C(=O)CNc5ccc6c(c5)C(=O)N(C5CCC(=O)NC5=O)C6=O)CC4)CC3)cc2)[C@@H](N(C)C)C1` (stereo partly drawn) [Example 140, 5-((2-(4-(3-(4-(4-((3S,4R)-4-(dimethylamino)-1-(2-fluoro-6-methylbenzyl)pyrrolidin-3-yl)phenyl)piperazin-1-yl)-3-oxopropyl)piperidin-1-yl)-2-oxoethyl)amino)-2-(2,6-dioxopiperidin-3-yl)isoindolin-1,3-dione], the “EED degradation rate” value is given as “A (A: >50%)”.
In the case of `Cc1cccc(F)c1CN1C[C@H](c2ccc(N3CCN(C(=O)CCCNc4cccc5c4C(=O)N(C4CCC(=O)NC4=O)C5=O)CC3)cc2)[C@@H](N(C)C)C1` (stereo partly drawn) [Example 123, 4-((4-(4-(4-((3S,4R)-4-(dimethylamino)-1-(2-fluoro-6-methylbenzyl)pyrrolidin-3-yl)phenyl)piperazin-1-yl)-4-oxobutyl)amino)-2-(2,6-dioxopiperidin-3-yl)isoindolin-1,3-dione], the “EED degradation rate” value is reported as “B (B: 25-50%)”.
The same measure for `Cc1cccc(F)c1CN1C[C@H](c2ccc(N3CCN(C(=O)CC4CCN(c5cccc6c5C(=O)N(C5CCC(=O)NC5=O)C6=O)CC4)CC3)cc2)[C@@H](N(C)C)C1` (stereo partly drawn) [Example 142, 4-(4-(2-(4-(4-((3S,4R)-4-(dimethylamino)-1-(2-fluoro-6-methylbenzyl)pyrrolidin-3-yl)phenyl)piperazin-1-yl)-2-oxoethyl)piperidin-1-yl)-2-(2,6-dioxopiperidin-3-yl)isoindolin-1,3-dione]: “C (C: <25%)”; for `Cc1cccc(F)c1CN1C[C@H](c2ccc(N3CCN(C(=O)COCCOCCOCCNC(=O)CNc4ccc5c(c4)C(=O)N(C4CCC(=O)NC4=O)C5=O)CC3)cc2)[C@@H](N(C)C)C1` (stereo partly drawn) [Example 122, N-(2-(2-(2-(2-(4-(4-((3S,4R)-4-(dimethylamino)-1-(2-fluoro-6-methylbenzyl)pyrrolidin-3-yl)phenyl)piperazin-1-yl)-2-oxoethoxy)ethoxy)ethoxy)ethyl)-2-((2-(2,6-dioxopiperidin-3-yl)-1,3-dioxoisoindolin-5-yl)amino)acetamide]: “A (A: >50%)”.
In the case of `Cc1cccc(F)c1CN1C[C@H](c2ccc(N3CCN(CCC4CCN(C(=O)COc5cccc6c5C(=O)N(C5CCC(=O)NC5=O)C6=O)CC4)CC3)cc2)[C@@H](N(C)C)C1` (stereo partly drawn) [Example 151, 4-(2-(4-(2-(4-(4-((3S,4R)-4-(dimethylamino)-1-(2-fluoro-6-methylbenzyl)pyrrolidin-3-yl)phenyl)piperazin-1-yl)ethyl)piperidin-1-yl)-2-oxoethoxy)-2-(2,6-dioxopiperidin-3-yl)isoindolin-1,3-dione] it was “A (A: >50%)”.
The same measure for `Cc1cccc(F)c1CN1C[C@H](c2ccc(N3CCN(C(=O)CCC4CCN(c5ccc6c(c5)C(=O)N(C5CCC(=O)NC5=O)C6=O)CC4)CC3)cc2)[C@H](N(C)C)C1` (stereo partly drawn) [Example 133, 5-(4-(3-(4-(4-((3S,4S)-4-(dimethylamino)-1-(2-fluoro-6-methylbenzyl)pyrrolidin-3-yl)phenyl)piperazin-1-yl)-3-oxopropyl)piperidin-1-yl)-2-(2,6-dioxopiperidin-3-yl)isoindolin-1,3-dione]: “A (A: >50%)”.
For `Cc1cccc(F)c1CN1C[C@H](c2ccc(N3CCN(C(=O)CCCNc4ccc5c(c4)C(=O)N(C4CCC(=O)NC4=O)C5=O)CC3)cc2)[C@@H](N(C)C)C1` (stereo partly drawn) [Example 124, 5-((4-(4-(4-((3S,4R)-4-(dimethylamino)-1-(2-fluoro-6-methylbenzyl)pyrrolidin-3-yl)phenyl)piperazin-1-yl)-4-oxobutyl)amino)-2-(2,6-dioxopiperidin-3-yl)isoindolin-1,3-dione], the “EED degradation rate” value was “B (B: 25-50%)”.
The same measure for `Cc1cccc(F)c1CN1C[C@H](c2ccc(N3CCN(CCC4CCN(c5cccc6c5C(=O)N(C5CCC(=O)NC5=O)C6=O)CC4)CC3)cc2)[C@@H](N(C)C)C1` (stereo partly drawn) [Example 153, 4-(4-(2-(4-(4-((3S,4R)-4-(dimethylamino)-1-(2-fluoro-6-methylbenzyl)pyrrolidin-3-yl)phenyl)piperazin-1-yl)ethyl)piperidin-1-yl)-2-(2,6-dioxopiperidin-3-yl)isoindolin-1,3-dione]: “A (A: >50%)”.
In the case of `Cc1cccc(F)c1CN1C[C@H](c2ccc(N3CCN(CCC4CCN(C(=O)CNc5cccc6c5C(=O)N(C5CCC(=O)NC5=O)C6=O)CC4)CC3)cc2)[C@@H](N(C)C)C1` (stereo partly drawn) [Example 152, 4-((2-(4-(2-(4-(4-((3S,4R)-4-(dimethylamino)-1-(2-fluoro-6-methylbenzyl)pyrrolidin-3-yl)phenyl)piperazin-1-yl)ethyl)piperidin-1-yl)-2-oxoethyl)amino)-2-(2,6-dioxopiperidin-3-yl)isoindolin-1,3-dione] it was “A (A: >50%)”; in that of `O=C1CCC(N2C(=O)c3ccc(NCC(=O)N4CCC(CN5CCC(n6cc(-c7cnc(NCc8ccco8)n8cnnc78)cn6)CC5)CC4)cc3C2=O)C(=O)N1` (centres unmarked) [Example 127, 2-(2,6-dioxopiperidin-3-yl)-5-((2-(4-((4-(4-(5-((furan-2-ylmethyl)amino)-[1,2,4]triazolo[4,3-c]pyrimidin-8-yl)-1H-pyrazol-1-yl)piperidin-1-yl)methyl)piperidin-1-yl)-2-oxoethyl)amino)isoindolin-1,3-dione], “C (C: <25%)”.
The same measure for `O=C1CCC(n2nnc3ccc(NCC(=O)N4CCC(CN5CCC(n6cc(-c7cnc(NCc8ccco8)n8cnnc78)cn6)CC5)CC4)cc3c2=O)C(=O)N1` (centres unmarked) [Example 128, 3-(6-((2-(4-((4-(4-(5-((furan-2-ylmethyl)amino)-[1,2,4]triazolo[4,3-c]pyrimidin-8-yl)-1H-pyrazol-1-yl)piperidin-1-yl)methyl)piperidin-1-yl)-2-oxoethyl)amino)-4-oxobenzo[d][1,2,3]triazin-3 (4H)-yl)piperidin-2,6-dione]: “C (C: <25%)”; for `Cc1cccc(F)c1CN1C[C@H](c2ccc(N3CCN(C(=O)CCC4CCN(C(=O)COc5ccc6c(c5)C(=O)N(C5CCC(=O)NC5=O)C6=O)CC4)CC3)cc2)[C@@H](N(C)C)C1` (stereo partly drawn) [Example 147, 5-(2-(4-(3-(4-(4-((3S,4R)-4-(dimethylamino)-1-(2-fluoro-6-methylbenzyl)pyrrolidin-3-yl)phenyl)piperazin-1-yl)-3-oxopropyl)piperidin-1-yl)-2-oxoethoxy)-2-(2,6-dioxopiperidin-3-yl)isoindolin-1,3-dione]: “B (B: 25-50%)”; for `Cc1cccc(F)c1CN1C[C@H](c2ccc(N3CCN(C(=O)COCCOCCNC(=O)CNc4ccc5c(c4)C(=O)N(C4CCC(=O)NC4=O)C5=O)CC3)cc2)[C@@H](N(C)C)C1` (stereo partly drawn) [Example 121, N-(2-(2-(2-(4-(4-((3S,4R)-4-(dimethylamino)-1-(2-fluoro-6-methylbenzyl)pyrrolidin-3-yl)phenyl)piperazin-1-yl)-2-oxoethoxy)ethoxy)ethyl)-2-((2-(2,6-dioxopiperidin-3-yl)-1,3-dioxoisoindolin-5-yl)amino)acetamide]: “A (A: >50%)”.
Consider `Cc1cccc(F)c1CN1C[C@H](c2ccc(N3CCN(CCOCCOCCOCCNC(=O)CNc4ccc5c(c4)C(=O)N(C4CCC(=O)NC4=O)C5=O)CC3)cc2)[C@@H](N(C)C)C1` (stereo partly drawn) [Example 135, N-(2-(2-(2-(2-(4-(4-((3S,4R)-4-(dimethylamino)-1-(2-fluoro-6-methylbenzyl)pyrrolidin-3-yl)phenyl)piperazin-1-yl)ethoxy)ethoxy)ethoxy)ethyl)-2-((2-(2,6-dioxopiperidin-3-yl)-1,3-dioxoisoindolin-5-yl)amino)acetamide], for which the “EED degradation rate” value was “B (B: 25-50%)”.
The same measure for `Cc1cccc(F)c1CN1C[C@H](c2ccc(N3CCN(C(=O)CC4CCN(C(=O)CNc5ccc6c(c5)C(=O)N(C5CCC(=O)NC5=O)C6=O)CC4)CC3)cc2)[C@@H](N(C)C)C1` (stereo partly drawn) [Example 146, 5-((2-(4-(2-(4-(4-((3S,4R)-4-(dimethylamino)-1-(2-fluoro-6-methylbenzyl)pyrrolidin-3-yl)phenyl)piperazin-1-yl)-2-oxoethyl)piperidin-1-yl)-2-oxoethyl)amino)-2-(2,6-dioxopiperidin-3-yl)isoindolin-1,3-dione]: “A (A: >50%)”; for `Cc1cccc(F)c1CN1C[C@H](c2ccc(N3CCN(CCC4CCN(c5ccc6c(c5)C(=O)N(C5CCC(=O)NC5=O)C6=O)CC4)CC3)cc2)[C@@H](N(C)C)C1` (stereo partly drawn) [Example 154, 5-(4-(2-(4-(4-((3S,4R)-4-(dimethylamino)-1-(2-fluoro-6-methylbenzyl)pyrrolidin-3-yl)phenyl)piperazin-1-yl)ethyl)piperidin-1-yl)-2-(2,6-dioxopiperidin-3-yl)isoindolin-1,3-dione]: “A (A: >50%)”.
